Measurements reported in ChEMBL document CHEMBL4483862, “Open-source discovery of chemical leads for next-generation chemoprotective antimalarials” (2018).

System: Plasmodium berghei
Assay: Luciferase/luciferin-expressing antifolate-resistant parasites were used to infect a culture of HepG2 cells that were pre-incubated with compounds. Infected hepatocytes emit light due to the luciferase reaction. Assay results are presented as the percent inhibition of light emission compared to control. […]
Format: functional
Details: sporozoite; for IC90: read-out: LUCIFERASE INFECTION ASSAY - IC90
[1] = read-out: LUCIFERASE INFECTION ASSAY - IC50

SMILES | IC90 [µM] | IC50 [1] [µM] | other results
O=C(Nc1ccc(F)cc1)Nc1cnn(-c2ccc(Cl)cc2)c1C(F)(F)F | 2.1 |  | IC50 (PBLUC_HILL_SLOPE 1.06, PBLUC_R_SQUARED 0.652, read-out: LUCIFERASE INFECTION ASSAY - IC50): 0.266 µM
Cc1ccccc1COC(=O)C1(NC(=O)NCc2ccccc2)CCCC1 | > 10 | > 10 | 
CCC(OC(=O)c1cc2ccccc2[nH]1)C(=O)Nc1cc(C)on1 (stereo unspecified) | > 10 | > 10 | 
CCn1c(-c2ccccc2)c(C(=O)COC(=O)/C=C/c2ccco2)c2ccccc21 | > 10 |  | IC50 (HEPG2TOX_HILL_SLOPE 1.75, HEPG2TOX_R_SQUARED 0.877, PBLUC_HILL_SLOPE 15.9, PBLUC_R_SQUARED 0.384, read-out: LUCIFERASE INFECTION ASSAY - IC50): 9.6 µM
Cc1csc2ncnc(N3CCN(C(=O)Nc4ccc(Cl)c(Cl)c4)CC3)c12 | > 7.81 |  | IC50 (HEPG2TOX_HILL_SLOPE 0.318, HEPG2TOX_R_SQUARED 0.0791, PBLUC_HILL_SLOPE 1.99, PBLUC_R_SQUARED 0.376, read-out: LUCIFERASE INFECTION ASSAY - IC50): > 7.81 µM
N#Cc1ccc(CN2CCN(CC(=O)Nc3nc(-c4c[nH]c5ccccc45)cs3)CC2)cc1 | 3.45 |  | IC50 (HEPG2TOX_HILL_SLOPE 1.59, HEPG2TOX_R_SQUARED 0.927, PBLUC_HILL_SLOPE 64.1, PBLUC_R_SQUARED 0.488, read-out: LUCIFERASE INFECTION ASSAY - IC50): 3.33 µM
Cc1cc(C)cc(NC(=O)C(NCC(C(C)C)N2CCOCC2)c2ccccc2)c1 (stereo unspecified) | > 10 |  | IC50 (PBLUC_HILL_SLOPE 13.4, 2.47, PBLUC_R_SQUARED 0.208, 0.834, read-out: LUCIFERASE INFECTION ASSAY - IC50): 6.61 µM
FC(F)(F)c1cnc(Sc2nc(CN3CCOCC3)nc3scc(-c4ccccc4)c23)c(Cl)c1 | > 10 | > 10 | 
CNc1nc2cnc(Nc3cccc(C(C)C)c3)cc2n1CC1CC1 | 9.92 |  | IC50 (PBLUC_HILL_SLOPE 4.69, PBLUC_R_SQUARED 0.216, read-out: LUCIFERASE INFECTION ASSAY - IC50): 6.21 µM
O=C(Cc1csc(Cc2ccccc2)n1)N1CCc2ccc(O)cc2C1 | > 10 |  | IC50 (PBLUC_HILL_SLOPE 3.03, PBLUC_R_SQUARED 0.78, read-out: LUCIFERASE INFECTION ASSAY - IC50): 6.09 µM
COc1cc(/C=C/c2ccc3ccccc3n2)ccc1OCC(=O)Nc1cccc(C(F)(F)F)c1 | > 10 |  | IC50 (PBLUC_HILL_SLOPE 1.81, PBLUC_R_SQUARED 0.402, read-out: LUCIFERASE INFECTION ASSAY - IC50): 8.14 µM
Cn1c(Sc2ncnc3sccc23)nc2ccccc21 | 5.38 |  | IC50 (PBLUC_HILL_SLOPE 9.4, PBLUC_R_SQUARED 0.756, read-out: LUCIFERASE INFECTION ASSAY - IC50): 4.26 µM
CNc1nc2cnc(Nc3ccc(OC(C)C)cc3)cc2n1-c1cc(OC)c(OC)c(OC)c1 | > 10 |  | IC50 (PBLUC_HILL_SLOPE 1.37, PBLUC_R_SQUARED 0.322, read-out: LUCIFERASE INFECTION ASSAY - IC50): 5.86 µM
Cc1sc2nc(-c3cccnc3)nc(N3CCN(S(=O)(=O)/C=C/c4ccccc4)CC3)c2c1C | > 10 |  | IC50 (PBLUC_HILL_SLOPE 11.2, PBLUC_R_SQUARED 0.469, read-out: LUCIFERASE INFECTION ASSAY - IC50): 8.64 µM
CCOC(=O)c1c(C)noc1/C(C)=N/Nc1cc(C(F)(F)F)cc(C(F)(F)F)c1 | > 7.8 |  | IC50 (FFLUC_HILL_SLOPE 2.91, FFLUC_R_SQUARED 0.779, PBLUC_HILL_SLOPE 12.4, PBLUC_R_SQUARED 0.288, read-out: LUCIFERASE INFECTION ASSAY - IC50): > 7.8 µM
CNC(=O)c1ccc(CN(C2CC2)S(=O)(=O)c2cc([N+](=O)[O-])cc(C)c2C)cc1 | > 10 |  | IC50 (FFLUC_HILL_SLOPE 3.59, FFLUC_R_SQUARED 0.192, PBLUC_HILL_SLOPE 1.6, PBLUC_R_SQUARED 0.527, read-out: LUCIFERASE INFECTION ASSAY - IC50): 5.04 µM
COc1ccc(NC(=O)c2cccc(C3(CNc4ccccc4)CC3)c2)cn1 | > 10 | > 10 | 

SMILES | IC90 [µM] | IC50 [1] [µM] | other results
CCN(CC)S(=O)(=O)c1cccc(-c2nnc(SCc3nc(=O)c4cccc(C)c4[nH]3)n2CC(C)C)c1 | > 10 |  | IC50 (HEPG2TOX_HILL_SLOPE 0.901, HEPG2TOX_R_SQUARED 0.0979, read-out: LUCIFERASE INFECTION ASSAY - IC50): > 10 µM
COc1cc(OC)cc(-c2cn3c(-c4ccc5c(ccn5C)c4)cnc3cn2)c1 | 0.163 |  | IC50 (HEPG2TOX_HILL_SLOPE 3.11, HEPG2TOX_R_SQUARED 0.612, PBLUC_HILL_SLOPE 2.08, PBLUC_R_SQUARED 0.748, read-out: LUCIFERASE INFECTION ASSAY - IC50): 0.0568 µM
CNc1nc2cnc(Nc3ccccc3)cc2n1-c1cccc(C(F)(F)F)c1 | > 10 | > 10 | 
O=C(CN1CC=C(c2c[nH]c3ccccc23)CC1)Nc1ccccc1OC(F)F | > 10 |  | IC50 (HEPG2TOX_HILL_SLOPE 99.6, HEPG2TOX_R_SQUARED 0.512, PBLUC_HILL_SLOPE 10, PBLUC_R_SQUARED 0.0817, read-out: LUCIFERASE INFECTION ASSAY - IC50): > 10 µM
CCOc1c(Cl)cc(C2CC(=O)N(Cc3ccccc3)c3nc4ccccc4n32)cc1OC (stereo unspecified) | > 10 |  | IC50 (HEPG2TOX_HILL_SLOPE 5.74, HEPG2TOX_R_SQUARED 0.547, PBLUC_HILL_SLOPE 2.97, PBLUC_R_SQUARED 0.551, read-out: LUCIFERASE INFECTION ASSAY - IC50): 5.06 µM
O=c1nc(Nc2ccc(SC(F)(F)F)cc2)c2ccccc2o1 | 0.441 |  | IC50 (PBLUC_HILL_SLOPE 2.14, PBLUC_R_SQUARED 0.975, read-out: LUCIFERASE INFECTION ASSAY - IC50): 0.158 µM
CC(C)c1ccc(NC(=O)C2=COC3=NC(=O)N(Cc4cccc(C#N)c4)CCN23)cc1 | 1.27 |  | IC50 (HEPG2TOX_HILL_SLOPE 1.33, HEPG2TOX_R_SQUARED 0.794, PBLUC_HILL_SLOPE 15.4, PBLUC_R_SQUARED 0.591, read-out: LUCIFERASE INFECTION ASSAY - IC50): 1.1 µM
O=C1CN(c2ccc(NC(=O)CCc3ccco3)cn2)CCN1 | > 10 | > 10 | 
Cc1cc(OCC(=O)/N=c2/sccn2C)c(C(C)C)cc1Cl | > 10 | > 10 | 
CNc1nc2cnc(Nc3cc(C(F)(F)F)ccc3F)cc2n1Cc1ccccc1 | > 10 | > 10 | 
Cc1ccc2nc(NC(=O)c3cn(C)nc3-c3ccc4c(c3)OCCCO4)sc2c1 | > 10 | > 10 | 
O=C(CN1CCCc2ccccc21)NC(=O)NCc1ccccc1 | 7.44 |  | IC50 (PBLUC_HILL_SLOPE 112, PBLUC_R_SQUARED 0.458, read-out: LUCIFERASE INFECTION ASSAY - IC50): 7.29 µM
CC(C)(C)c1ccc(C(=O)NNC(=S)Nc2ccccc2)cc1 | > 10.1 |  | IC50 (FFLUC_HILL_SLOPE 0.417, FFLUC_R_SQUARED 0.371, PBLUC_HILL_SLOPE 1.47, PBLUC_R_SQUARED 0.465, read-out: LUCIFERASE INFECTION ASSAY - IC50): 3.05 µM
O=C(Cn1cnc2scc(-c3ccccc3)c2c1=O)Nc1ccc([N+](=O)[O-])cc1 | > 10 | > 10 | 
O=C(Nc1ccccc1)c1nnsc1S(=O)(=O)c1ccc(Cl)cc1 | > 8.69 | > 8.69 | 
COc1ccc(S(=O)(=O)N2CCN(C(=O)c3sc4nc5n(c(=O)c4c3C)CCCCC5)CC2)cc1 | > 10 | > 10 | 
